Experimental data from patent publication US7915267B2, “Heterocyclic amide compound and use thereof” (Takeda Pharmaceutical Company Limited, priority 2005, dated 2011).

biological target: T1, MMP-13 (Homo sapiens, UniProt P45452); assay: MMP-13 inhibitory activity (fluorogenic substrate Cy3-PLGLK(Cy5Q)AR-NH2 enzyme assay); format: biochemical; conditions: compound 1 μM; 37° C., 40 min; APMA-activated MMP-13 precursor; read-out: MMP-13 inhibitory rate (%) at 1 μM
T1 construct: purchased GenzymeTechne
Procedure: To 10 μg of MMP-13 precursor (GenzymeTechne) was added 1 ml of assay buffer (50 mM Tris-HCl (pH 7.5), 10 mM CaCl2, 150 mM NaCl, 0.05% Brij-35), and 4-aminophenylmercuric acid (Sigma) was added to the final concentration of 1 mM. The MMP-13 precursor was activated by incubating at 37° C. for 2 hr.
In a 96 well black plate (Corning), to 6.3 ng/ml of MMP-13 solution (49 μl) diluted with assay buffer was added the test compound (1 μl) diluted with dimethyl sulfoxide (DMSO) and 620 nM Cy3-PLGLK(Cy5Q)AR-NH2 (50 μl, synthesized by Amersham Biosciences) in assay buffer was added to start the enzyme reaction. After incubation at 37° C. for 40 min, 500 mM EDTA solution (6 μl) was added to stop the reaction. For measurement, Farcyte (Amersham Biosciences) was used to measure at excitation wavelength 535 nm and measurement wavelength 595 nm.
T: value of well with addition of DMSO instead of test compound
C: value of well with addition of DMSO instead of test compound and addition of EDTA solution before addition of substrate solution
X: value of well with addition of test compound

inhibition at 1 µM [%]	Compound
96	O=C(NCc1cccc(COCc2nc[nH]n2)c1)c1nc2ccccc2c(=O)[nH]1 [Example 30, 4-oxo-N-[(3-{[(1H-1,2,4-triazol-3-ylmethyl)oxy]methyl}phenyl)methyl]-3,4-dihydroquinazoline-2-carboxamide]
97	N#Cc1ccc2nc(C(=O)NCc3cccc(COCc4nc[nH]n4)c3)[nH]c(=O)c2c1 [Example 31, 6-cyano-4-oxo-N-[(3-{[(1H-1,2,4-triazol-3-ylmethyl)oxy]methyl}phenyl)methyl]-3,4-dihydroquinazoline-2-carboxamide]
98	N#Cc1ccc2nc(C(=O)NCc3cccc(NC(=O)CCc4nc[nH]n4)c3)[nH]c(=O)c2c1 [Example 32, 6-cyano-4-oxo-N-[(3-{[3-(1H-1,2,4-triazol-3-yl)propanoyl]amino}phenyl)methyl]-3,4-dihydroquinazoline-2-carboxamide]
90	N#Cc1ccc2nc(C(=O)NCc3cccc(CNC(=O)Cc4nc[nH]n4)c3)[nH]c(=O)c2c1 [Example 34, 6-cyano-4-oxo-N-[(3-{[(1H-1,2,4-triazol-3-ylacetyl)amino]methyl}phenyl)methyl]-3,4-dihydroquinazoline-2-carboxamide]
97	N#Cc1ccc2nc(C(=O)NCc3cccc(CNC(=O)c4nc[nH]n4)c3)[nH]c(=O)c2c1 [Example 36, 6-cyano-4-oxo-N-[(3-{[(1H-1,2,4-triazol-3-ylcarbonyl)amino]methyl}phenyl)methyl]-3,4-dihydroquinazoline-2-carboxamide]
85	N#Cc1ccc2nc(C(=O)NCc3cccc(NC(=O)c4nc[nH]n4)c3)[nH]c(=O)c2c1 [Example 38, 6-cyano-4-oxo-N-({3-[(1H-1,2,4-triazol-3-ylcarbonyl)amino]phenyl}methyl)-3,4-dihydroquinazoline-2-carboxamide]
81	Cc1csc2nc(C(=O)NCc3cccc(NC(=O)c4nc[nH]n4)c3)[nH]c(=O)c12 [Example 39, 5-methyl-4-oxo-N-({3-[(1H-1,2,4-triazol-3-ylcarbonyl)amino]phenyl}methyl)-3,4-dihydrothieno[2,3-d]pyrimidine-2-carboxamide]
94	O=C(CCCOc1cccc(CNC(=O)c2nc3ccccc3c(=O)[nH]2)c1)Nc1nc[nH]n1 [Example 40, 4-oxo-N-[(3-{[4-oxo-4-(1H-1,2,4-triazol-3-ylamino)butyl]oxy}phenyl)methyl]-3,4-dihydroquinazoline-2-carboxamide]
96	CCOC(=O)c1ccc(COCc2csc3nc(C(=O)NCc4ccnc(OCCCc5nc[nH]n5)c4)[nH]c(=O)c23)cc1 [Example 41, ethyl 4-[({[4-oxo-2-({[(2-{[3-(1H-1,2,4-triazol-3-yl)propyl]oxy}pyridin-4-yl)methyl]amino}carbonyl)-3,4-dihydrothieno[2,3-d]pyrimidin-5-yl]methyl}oxy)methyl]benzoate]
98	O=C(O)c1ccc(COCc2csc3nc(C(=O)NCc4ccnc(OCCCc5nc[nH]n5)c4)[nH]c(=O)c23)cc1 [Example 42, 4-[({[4-oxo-2-({[(2-{[3-(1H-1,2,4-triazol-3-yl)propyl]oxy}pyridin-4-yl)methyl]amino}carbonyl)-3,4-dihydrothieno[2,3-d]pyrimidin-5-yl]-methyl}oxy)methyl]benzoic acid]
98	O=C(NCc1cccc(OCCOc2nc[nH]n2)c1)c1nc2ccc(F)c(F)c2c(=O)[nH]1 [Example 44, 5,6-difluoro-4-oxo-N-[(3-{[2-(1H-1,2,4-triazol-3-yloxy)ethyl]oxy}phenyl)methyl]-3,4-dihydroquinazoline-2-carboxamide]
97	O=C(NCc1cccc(OCCOc2nc[nH]n2)c1)c1nc2ccc(F)c(NCc3cccc(OCCOc4nc[nH]n4)c3)c2c(=O)[nH]1 [Example 45, 6-fluoro-4-oxo-N-[(3-{[2-(1H-1,2,4-triazol-3-yloxy)ethyl]oxy}phenyl)methyl]-5-{[(3-{[2-(1H-1,2,4-triazol-3-yloxy)ethyl]oxy}phenyl)methyl]amino}-3,4-dihydroquinazoline-2-carboxamide]
100	O=C(O)c1ccc(CCOc2c(F)ccc3nc(C(=O)NCc4cccc(OCCOc5nc[nH]n5)c4)[nH]c(=O)c23)cc1 [Example 46, 4-(2-{[6-fluoro-4-oxo-2-({[(3-{[2-(1H-1,2,4-triazol-3-yloxy)ethyl]oxy}phenyl)methyl]amino}carbonyl)-3,4-dihydroquinazolin-5-yl]oxy}ethyl)benzoic acid]
98	COC(=O)c1ccc(OCCn2ncc3nc(C(=O)NCc4cccc(OCCOc5nc[nH]n5)c4)[nH]c(=O)c32)cc1 [Example 47, methyl 4-({2-[7-oxo-5-({[(3-{[2-(1H-1,2,4-triazol-3-yloxy)ethyl]oxy}phenyl)methyl]amino)carbonyl}-6,7-dihydro-1H-pyrazolo[4,3-d]pyrimidin-1-yl]ethyl}oxy)benzoate]
99	O=C(O)c1ccc(OCCn2ncc3nc(C(=O)NCc4cccc(OCCOc5nc[nH]n5)c4)[nH]c(=O)c32)cc1 [Example 48, 4-({2-[7-oxo-5-({[(3-{[2-(1H-1,2,4-triazol-3-yloxy)ethyl]oxy}phenyl)methyl]amino}carbonyl)-6,7-dihydro-1H-pyrazolo[4,3-d]pyrimidin-1-yl]ethyl}oxy)benzoic acid]
